Experiments:
moss = test: Control of moss on greenhouse wall and ground; conditions: 5% (w/v), sprayed to run-off, one application, within 24 hours
Phormidium algae [1] = test: Filter paper assay of algicidal activity; assay type: cell-based; conditions: for Zone of Inhibition: observed 4 days after start
Description: Briefly, the filter paper assay is designed to approximate an environment such as that found on a golf course, where algal pests can be particularly damaging. Blended fragment suspensions of Phormidium algae were passed through a coarse Whatman filter paper circle to collect the algal cells. The filter paper was then placed in a large Petri dish containing moist sand. The desired concentration of 10% benzyl benzoate formulation (0.8, 0.3 and 0.1% (w/v) final concentration) was placed on marked areas of the algae field to determine toxic effects. Observations were made 4 days after the test was initiated and were compared to control experiments using the known pesticide Daconil.

Phormidium algae [2] = test: Well-plate assay of algicidal activity; conditions: for Lethality: 24 hours under fluorescent light
Description: Liquid cultures of Phormidiumalgae were homogenized into individual cells in a standard laboratory blender apparatus. One hundred fifty μl of the homogenized algal suspension were added to the wells of 96-well assay plates using multitip-transfer pipettes. To each well, 150 μl of various dilutions of the test formulation were added, such that final concentrations of bcnzyl benzoate in the test wells were 0.8%, 0.3%, and 0.1%. The plates were allowed to incubation under fluorescent light for 24 hours.

[3] = system: Tiffway hybrid bermudagrass and SR1020 bentgrass; test: Phytotoxic field testing on grass test surfaces; assay type: in vivo; conditions: highest concentration (0.8% w/v), one square foot test surfaces
Description: This formulation was applied to two grass species, Tiffway hybrid bermudagrass and SR1020 bentgrass. One square foot test surfaces of each grass type were used. The test formulation was applied to test surfaces in dilutions corresponding to 0.8, 0.3, and 0.1% (w/v) benzyl benzoate.

Phormidium algae [4] = test: Field test, spray application: control of algae on turfgrass; assay type: in vivo; conditions: single spray application, several days following
Description: (§1) Each of the three concentrations and negative controls without benzyl benzoate were applied to one square foot of SRI 020 bentgrass or Tiffway hybrid bermudagrass, which was naturally infected with Phormidiumalgae, with a single spray application. The turfgrass was examined empirically for control of the algae as well and toxicity to the grass.

[5] = system: SRI 020 bentgrass or Tiffway hybrid bermudagrass; test: Field test, spray application: toxicity to the grass; assay type: in vivo, SRI 020 bentgrass; Tiffway hybrid bermudagrass; conditions: all concentrations tested (0.8, 0.3, 0.1% w/v), single spray application
Description: as §1

SMILES	phytotoxicity to moss (moss)	Zone of Inhibition (Phormidium algae [1]; 0.1% (w/v) benzyl benzoate)	killing Phormidium (Phormidium algae [1]; 0.3% (w/v) benzyl benzoate)	Zone of Inhibition (Phormidium algae [1]; 0.3% (w/v) benzyl benzoate)	killing Phormidium (Phormidium algae [1]; 0.8% (w/v) benzyl benzoate)	Zone of Inhibition (Phormidium algae [1]; 0.8% (w/v) benzyl benzoate)	Comments (efficacy compared to Daconil) (Phormidium algae [2]; 0.1% benzyl benzoate)	Lethality (Phormidium algae [2]; 0.1% benzyl benzoate final concentration)	Comments (efficacy compared to Daconil) (Phormidium algae [2]; 0.3% benzyl benzoate)	Lethality (Phormidium algae [2]; 0.3% benzyl benzoate final concentration)	Comments (efficacy compared to Daconil) (Phormidium algae [2]; 0.8% benzyl benzoate)	Lethality (Phormidium algae [2]; 0.8% benzyl benzoate final concentration)	phytotoxicity [3]	algae control (Phormidium algae [4]; 0.3% (w/v))	algae control (Phormidium algae [4]; 0.8% (w/v))	phytotoxic effect (chemical burn) on the two grass species [5]
CCCCCCC(C=O)=Cc1ccccc1 [HCA, α-hexyl cinnamic aldehyde, reference compound]	phytotoxic to moss	–	–	–	–	–	–	–	–	–	–	–	–	–	–	–
O=C(OCc1ccccc1)c1ccccc1O [benzyl salicylate]	phytotoxic to moss	–	–	–	–	–	–	–	–	–	–	–	–	–	–	–
O=C(OCc1ccccc1)c1ccccc1 [benzyl benzoate]	–	no	very effective	yes	very effective	yes	Same efficacy as	no	Superior to Daconil	yes	Superior to Daconil	yes	Only small signs of phytotoxicity	significant level of control	most effective algae control	minimal phytotoxic effect

— patent US20030040436A1 (priority 2000, published 2003)
